One series has as its target T1, hERG channel (Homo sapiens, UniProt Q12809).
T1 construct: host or cells: CHO-K1
Also noted: method as in PMID 36233193. The note with it: ratio; cited from earlier work.

The next series relates to CYP3A. Also noted: method as in PMID 36233193. The note with it: at 10 µM; cited from earlier work.
For the next series, the system named is Caco-2 cell line. Also noted: method as in PMID 36233193. The note with it: 10 µM, cited from earlier work.
Details of series [1]: method as in PMID 36233193. The note with it: cited from earlier work.
The test system of series [2] is SH-SY5Y neuroblastoma cells. In words: Cytotoxicity, MTT/MTS assay. The note with it: selectivity index; IC50 was considered > 100 µM. Type of series: cell-based, human. The procedure: (§1) To assess potential cytotoxicity in CNS-relevant cells, human neuroblastoma (SH-SY5Y) cells were exposed to compounds 2–7 at concentrations up to 100 μM. Cell viability was measured using the MTT assay.
(§2) Cytotoxicity was assessed in human SH-SY5Y neuroblastoma cells cultured in Dulbecco’s Modified Eagle Medium (DMEM, Gibco, Thermo Fisher Scientific Inc., Waltham, MA, USA) supplemented with 2 mM L-glutamine, 100 μg/mL streptomycin, 100 IU/mL penicillin, 1 mM non-essential amino acids (all from Invitrogen, Thermo Fisher Scientific Inc., Waltham, MA, USA), and 10% (v/v) heat-inactivated fetal bovine serum (Sigma-Aldrich, Burlington, MA, USA). Cells were maintained at 37 °C in a humidified 5% CO2 atmosphere and serum-starved for 24 h to synchronize cultures before treatment with the test compounds at final concentrations of 100, 50, 10, 5, 1, 0.5, 0.1, or 0.05 μM (all in <0.1% DMSO). […] Absorbance was measured at 490 nm, and the results were expressed as a percentage relative to untreated control cells (set at 100%).

Series [3] is described as follows: Cytotoxicity, MTT/MTS assay. Format: cell-based, human. The note with it: human, SH-SY5Y neuroblastoma cells; percentage of cell death after 24 h treatment at 100 µM (duplicate); read-out: SY5Y % Cytotox. The procedure: as §1, §2
Details of series [4]: method as in PMID 36233193. The note with it: 10 µM; cited from earlier work.
In another series the target is histamine H1 receptor (Homo sapiens, UniProt P35367). More on the design: method as in PMID 11897056. The note with it: 10 µM; cited from earlier work.
On the set-up of series [5]: method as in PMID 36233193. The note with it: 10 µM; cited from earlier work. This is another data set of the same source.
In another series the test system is CYP1A. Also noted: method as in PMID 36233193. The note with it: at 10 µM; cited from earlier work.
A further series deals with muscarinic M1 receptor (Homo sapiens, UniProt P11229). More on the design: method as in PMID 11897056. The note with it: 10 µM; cited from earlier work.
The target in a further series is T2, S2R (Homo sapiens, UniProt Q5BJF2).
T2 construct: For the S2R assay, Jurkat cell membranes (10–20 μg protein/tube) were incubated at room temperature for 1 h; host or cells: Jurkat cell membranes
Description: S2R competitive radioligand binding, [3H]-DTG with excess (+)-pentazocine, Jurkat cell membranes. The text has this: (§3) S1R and S2R affinities were classically evaluated through competitive binding assays using radioligands, following the protocol described by Ganapathy et al.. The selective radioligand [^3H] (+)-pentazocine was employed as the classic prototypical ligand, selectively binding to the orthosteric S1R-binding sites. […] Jurkat cell membranes served as the receptor source in both assays. The equilibrium dissociation constants (Ki) for S1R and S2R were derived from the IC50 values of each compound, and selectivity ratios (S2R/S1R) were subsequently calculated (Table 1, Figures S2 and S3).
(§4) Binding assays were performed by Eurofins Cerep (Poitiers, France) according to the protocol of Ganapathy. […] For the S2R assay, Jurkat cell membranes (10–20 μg protein/tube) were incubated at room temperature for 1 h in the same buffer with [^3H]-DTG (25 nM) in the presence of (+)-pentazocine (1 μM) to saturate S1R, along with a range of test compound concentrations. Bound radioactivity was quantified by liquid scintillation counting. Nonspecific binding was determined under identical conditions in the presence of 10 μM unlabeled haloperidol. The IC50 values (concentration causing a half-maximal inhibition of control-specific binding) and Hill coefficients (nH) were determined by non-linear regression analysis of the competition curves generated with mean replicate values using Hill equation curve-fitting. This analysis was performed using software developed at Cerep (Hill software) and validated by comparison with data generated by the commercial software SigmaPlot ®4.0 for Windows® (©1997 by SPSS Inc.). Inhibition constants (Ki) were calculated from IC50 values using the method of Cheng and Prusoff.

A further series concerns the target MRP2 (Homo sapiens, UniProt Q92887). Also noted: method as in PMID 36233193. The note with it: at 10 µM; ABC family; cited from earlier work.
In the next series the target is T3, S1R (Homo sapiens, UniProt Q99720).
T3 construct: For the S1R assay, Jurkat cell membranes (10–20 μg protein/tube) were incubated at 37 °C for 2 h; host or cells: Jurkat cell membranes
In words: S1R competitive radioligand binding, [3H](+)-pentazocine, Jurkat cell membranes. The note with it: Jurkat cell membranes.
Source text: as §3, §4

Another series has as its target T4, CYP2C19 (Homo sapiens, UniProt P33261).
T4 construct: tissue Eurofins Cerep (assay provider); host or cells: human liver microsomes
More on the design: method as in PMID 36233193. The note with it: at 10 µM; cited from earlier work.

As usually defined, the pIC50 is the IC50 on a negative log10 scale, so that one unit is a factor of ten. Lower therefore signals a high IC50. One may read the Ki as a dissociation constant, usually derived from enzyme kinetics or from competition with a known ligand. A lower Ki goes with a stronger hold on the target.

pIC50: −log10 of the molar value.

T3 sequence (Q99720 whole entry): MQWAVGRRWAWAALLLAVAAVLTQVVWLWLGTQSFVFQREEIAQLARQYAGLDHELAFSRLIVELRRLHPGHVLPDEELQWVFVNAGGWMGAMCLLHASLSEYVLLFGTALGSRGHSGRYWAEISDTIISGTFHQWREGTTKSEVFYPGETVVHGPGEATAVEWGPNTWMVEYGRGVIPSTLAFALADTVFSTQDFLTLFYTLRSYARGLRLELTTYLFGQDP
T2 sequence (Q5BJF2 whole entry): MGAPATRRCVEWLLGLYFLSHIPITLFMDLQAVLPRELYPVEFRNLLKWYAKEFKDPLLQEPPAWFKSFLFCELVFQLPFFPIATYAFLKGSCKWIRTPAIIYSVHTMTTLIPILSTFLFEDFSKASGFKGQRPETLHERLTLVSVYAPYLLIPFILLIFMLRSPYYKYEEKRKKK
T4 sequence (P33261 whole entry): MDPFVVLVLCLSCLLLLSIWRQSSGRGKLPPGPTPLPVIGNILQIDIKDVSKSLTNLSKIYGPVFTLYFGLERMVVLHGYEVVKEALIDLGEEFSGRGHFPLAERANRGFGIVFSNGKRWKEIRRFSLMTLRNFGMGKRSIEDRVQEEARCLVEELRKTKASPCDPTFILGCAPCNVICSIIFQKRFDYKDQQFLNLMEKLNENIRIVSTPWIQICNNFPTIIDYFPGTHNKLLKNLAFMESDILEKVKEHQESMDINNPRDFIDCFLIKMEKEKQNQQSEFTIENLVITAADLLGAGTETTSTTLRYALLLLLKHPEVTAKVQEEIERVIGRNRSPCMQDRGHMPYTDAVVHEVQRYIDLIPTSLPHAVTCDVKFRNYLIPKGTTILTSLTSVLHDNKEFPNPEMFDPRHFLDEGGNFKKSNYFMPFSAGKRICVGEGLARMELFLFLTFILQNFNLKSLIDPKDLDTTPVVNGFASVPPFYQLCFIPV
Sequence of MRP2 (Q92887 whole entry): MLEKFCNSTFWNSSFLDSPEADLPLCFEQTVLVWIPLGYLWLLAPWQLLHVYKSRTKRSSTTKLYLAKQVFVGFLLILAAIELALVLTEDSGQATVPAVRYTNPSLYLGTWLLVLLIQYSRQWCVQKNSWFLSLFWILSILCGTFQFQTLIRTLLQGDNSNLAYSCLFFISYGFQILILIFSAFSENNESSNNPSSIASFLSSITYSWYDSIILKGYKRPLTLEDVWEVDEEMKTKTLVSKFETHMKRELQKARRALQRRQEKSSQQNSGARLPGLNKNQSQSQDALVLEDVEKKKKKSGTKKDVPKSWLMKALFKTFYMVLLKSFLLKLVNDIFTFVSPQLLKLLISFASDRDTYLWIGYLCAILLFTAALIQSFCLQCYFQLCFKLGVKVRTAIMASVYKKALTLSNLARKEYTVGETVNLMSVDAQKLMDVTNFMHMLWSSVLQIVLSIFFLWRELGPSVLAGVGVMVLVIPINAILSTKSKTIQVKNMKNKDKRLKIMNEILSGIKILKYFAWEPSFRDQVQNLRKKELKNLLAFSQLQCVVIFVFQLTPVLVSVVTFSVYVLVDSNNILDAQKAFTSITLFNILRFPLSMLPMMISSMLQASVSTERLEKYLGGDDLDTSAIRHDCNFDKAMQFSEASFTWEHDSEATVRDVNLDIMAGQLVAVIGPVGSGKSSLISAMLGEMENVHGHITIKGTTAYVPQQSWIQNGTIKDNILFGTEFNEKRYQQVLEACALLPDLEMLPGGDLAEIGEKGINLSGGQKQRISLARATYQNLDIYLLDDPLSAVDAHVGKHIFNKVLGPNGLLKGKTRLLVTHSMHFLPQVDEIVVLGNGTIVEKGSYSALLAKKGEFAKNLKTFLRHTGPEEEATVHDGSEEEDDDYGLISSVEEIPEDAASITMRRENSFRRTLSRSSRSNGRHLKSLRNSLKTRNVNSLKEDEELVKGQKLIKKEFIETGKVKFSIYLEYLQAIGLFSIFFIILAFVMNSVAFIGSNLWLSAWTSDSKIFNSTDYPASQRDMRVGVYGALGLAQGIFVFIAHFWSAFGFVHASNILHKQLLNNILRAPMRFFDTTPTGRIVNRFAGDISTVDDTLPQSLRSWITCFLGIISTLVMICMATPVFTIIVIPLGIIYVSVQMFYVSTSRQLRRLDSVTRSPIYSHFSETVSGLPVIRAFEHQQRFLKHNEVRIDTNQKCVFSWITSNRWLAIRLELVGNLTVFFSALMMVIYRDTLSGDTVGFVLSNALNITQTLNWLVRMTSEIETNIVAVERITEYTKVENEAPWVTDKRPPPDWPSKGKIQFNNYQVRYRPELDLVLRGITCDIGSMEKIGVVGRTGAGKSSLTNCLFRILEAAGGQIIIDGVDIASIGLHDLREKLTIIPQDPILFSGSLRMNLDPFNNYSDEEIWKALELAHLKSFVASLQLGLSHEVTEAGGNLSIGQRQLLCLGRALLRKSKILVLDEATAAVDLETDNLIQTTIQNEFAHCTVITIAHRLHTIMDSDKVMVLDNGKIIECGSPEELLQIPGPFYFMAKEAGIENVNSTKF
Sequence of histamine H1 receptor (P35367 whole entry): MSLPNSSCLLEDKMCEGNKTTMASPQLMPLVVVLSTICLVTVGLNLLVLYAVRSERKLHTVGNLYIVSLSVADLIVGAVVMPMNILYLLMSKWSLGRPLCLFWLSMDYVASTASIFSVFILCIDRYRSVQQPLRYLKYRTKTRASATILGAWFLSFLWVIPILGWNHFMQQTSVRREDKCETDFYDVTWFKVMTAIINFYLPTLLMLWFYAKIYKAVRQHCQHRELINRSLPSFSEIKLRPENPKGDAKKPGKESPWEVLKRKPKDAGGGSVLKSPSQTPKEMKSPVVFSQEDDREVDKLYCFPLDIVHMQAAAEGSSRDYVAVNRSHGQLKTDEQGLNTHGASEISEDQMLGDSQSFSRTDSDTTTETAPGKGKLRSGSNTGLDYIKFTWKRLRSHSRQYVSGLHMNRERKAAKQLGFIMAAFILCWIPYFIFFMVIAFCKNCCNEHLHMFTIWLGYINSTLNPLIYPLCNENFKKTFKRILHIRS
T1 sequence (Q12809 whole entry): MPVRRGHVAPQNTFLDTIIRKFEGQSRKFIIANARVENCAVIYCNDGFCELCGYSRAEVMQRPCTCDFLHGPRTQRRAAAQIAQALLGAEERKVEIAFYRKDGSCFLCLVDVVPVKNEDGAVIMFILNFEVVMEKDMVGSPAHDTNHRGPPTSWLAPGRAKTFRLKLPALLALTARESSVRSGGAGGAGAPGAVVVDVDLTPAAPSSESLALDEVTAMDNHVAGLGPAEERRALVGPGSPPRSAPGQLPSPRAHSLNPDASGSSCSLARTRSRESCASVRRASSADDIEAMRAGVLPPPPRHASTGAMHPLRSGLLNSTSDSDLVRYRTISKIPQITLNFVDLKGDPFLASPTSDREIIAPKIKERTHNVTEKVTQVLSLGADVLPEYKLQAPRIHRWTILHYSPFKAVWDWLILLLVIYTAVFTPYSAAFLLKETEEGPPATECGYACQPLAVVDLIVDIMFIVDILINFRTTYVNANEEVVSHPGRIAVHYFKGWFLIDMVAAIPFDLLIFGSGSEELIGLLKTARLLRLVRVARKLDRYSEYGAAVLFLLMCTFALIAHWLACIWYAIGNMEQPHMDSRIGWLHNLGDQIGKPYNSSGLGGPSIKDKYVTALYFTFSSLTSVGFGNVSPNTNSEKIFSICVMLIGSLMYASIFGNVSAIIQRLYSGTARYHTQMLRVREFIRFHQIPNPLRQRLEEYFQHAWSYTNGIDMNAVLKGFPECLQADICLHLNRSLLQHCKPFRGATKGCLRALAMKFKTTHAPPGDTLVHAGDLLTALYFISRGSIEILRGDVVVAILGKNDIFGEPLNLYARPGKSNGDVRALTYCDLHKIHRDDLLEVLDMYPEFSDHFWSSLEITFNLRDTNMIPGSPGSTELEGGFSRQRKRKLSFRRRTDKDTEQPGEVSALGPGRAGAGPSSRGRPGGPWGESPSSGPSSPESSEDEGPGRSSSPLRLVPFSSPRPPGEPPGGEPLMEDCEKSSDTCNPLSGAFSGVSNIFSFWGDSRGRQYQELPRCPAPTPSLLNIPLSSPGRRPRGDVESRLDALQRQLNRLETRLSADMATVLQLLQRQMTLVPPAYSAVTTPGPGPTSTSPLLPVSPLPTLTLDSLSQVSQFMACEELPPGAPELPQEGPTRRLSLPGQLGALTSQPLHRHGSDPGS
Sequence of muscarinic M1 receptor (P11229 whole entry): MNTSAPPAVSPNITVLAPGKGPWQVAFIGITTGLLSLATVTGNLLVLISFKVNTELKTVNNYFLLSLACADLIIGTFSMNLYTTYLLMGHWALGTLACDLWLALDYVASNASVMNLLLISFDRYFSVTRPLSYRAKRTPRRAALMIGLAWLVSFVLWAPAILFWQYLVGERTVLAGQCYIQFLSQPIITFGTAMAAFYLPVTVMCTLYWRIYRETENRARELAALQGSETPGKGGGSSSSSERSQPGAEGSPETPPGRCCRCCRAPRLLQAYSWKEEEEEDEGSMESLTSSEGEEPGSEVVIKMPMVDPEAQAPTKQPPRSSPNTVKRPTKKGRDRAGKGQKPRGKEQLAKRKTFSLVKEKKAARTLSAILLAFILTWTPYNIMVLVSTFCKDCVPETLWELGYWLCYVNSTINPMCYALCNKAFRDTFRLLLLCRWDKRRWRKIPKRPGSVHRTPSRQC

On to `CN(CCCNC(=O)c1ccc(Cl)cc1)Cc1ccccc1` [Compound 1], for which, at hERG channel, the “IC50 (hERG)/Ki (σ1)” value was 312. The “CYP inhibition 3A” value in the series with CYP3A is 36.9%. Moreover, in the series with Caco-2 cell line (Caco-2), the “Permeability A/B pH7.4/7.4” value is given as 29.1 ×10^−6 cm/s. The “Permeability B/A pH7.4/7.4” value in the series on Caco-2 cell line (Caco-2) is given as 66.1 ×10^−6 cm/s. Besides, the e-ratio in the series with Caco-2 cell line (efflux ratio Papp(B→A)/Papp(A→B)) is 2.3. In addition, in series [1], the “Mouse plasma t1/2” value was 25.9 h. The “IC50 (SY5Y)/ Ki (S1R)” value in series [2] was >31,250. Further, the cytotoxicity at 24 h, 100 µM in [3] was 28%. The “Human liver microsome half-life t1/2” value in [4] was over 1 h. Besides, the “H1 activity (in words)” value at histamine H1 receptor is recorded as “no activity”. For the same compound, the Plasma protein binding in [5] is given as 94%. Further, the “CYP inhibition 1A” value in the series with CYP1A was 2.1%. Moreover, the “M1 antagonist activity (in words)” value on muscarinic M1 receptor is “antagonist activity”. Further, the pIC50 is 6.59 at S2R ([3H]-DTG displacement with excess (+)-pentazocine, n = 2) and 8.20 at S1R ([3H]-(+)-pentazocine displacement, n = 2). For the same compound, the Ki is 190 nM on S2R ([3H]-DTG with (+)-pentazocine, mean of 2–3 independent experiments) and 3.2 nM at S1R ([3H](+)-pentazocine, mean of 2–3 independent experiments). Moreover, the “Drug transport inhibition MRP2” value at MRP2 is on record as −18.6%. Moreover, at CYP2C19, the “CYP inhibition 2C19” value is 36.2%.

Values taken from paper PMC12430443, “Discovery of Novel Benzamide-Based Sigma-1 Receptor Agonists with Enhanced Selectivity and Safety” (Molecules, 2025).
